Results published in publication PMC12040169 (PLOS Biology, 2025).

Assay: in vitro
Details: human, hela cells, % viability

Structure (SMILES)	viability at 28.5 h, 10 µM
Cc1cc(S(=O)(=O)N2CCCC2)ccc1OCC(=O)O [CBK268289]	89%
NC(=O)c1ccc(-c2cncc(NCc3ccco3)n2)cc1 [CBK065383]	85.6%
CC(C)(C)NC(=O)Cn1ccc2ccnc(-c3cccs3)c21 [CBK284737]	94.1%
CCn1cc(S(=O)(=O)NC2(c3ccc(F)cc3)CC2)cn1 [CBK282801]	112%
O=C(/C=C\c1cn(-c2ccccc2)nc1-c1cccc([N+](=O)[O-])c1)n1nnc2ccccc21 [CBK265273]	104%
CCc1nc2c(OCC(=O)N3CCOCC3)cccn2c1N(C)C(=O)c1ccco1 [CBK147436]	92%
CCOc1c(Br)cc(CNc2nc[nH]n2)cc1OC [CBK268009]	104%
O=C(CCNC(Cc1ccccc1)C(=O)O)c1ccccc1 (stereo not shown) [CBK286655]	83%
COc1ccc(C(=O)Nc2cnn(CCCC(=O)O)c2)cc1 [CBK270052]	89.7%
O=C(CCC1COc2ccccc2O1)Nc1ccc(C(=O)O)cc1 (stereo not shown) [CBK269856]	89.7%
Cc1c(CN(C)CC2CCN(C)C2)cnn1Cc1ccccc1 (stereo not shown) [CBK282616]	105%
O=C(Nc1nc2ccccc2[nH]1)NC1CCCCC1 [CBK288210]	86.1%
COc1nccc(N2CCC3(CC(=O)NC3=O)C2)c1C#N (stereo not shown) [CBK307246]	108%
Brc1ccc(OCc2ccccc2)c(CNCCN2CCOCC2)c1 [CBK278171C]	97%
COc1ccc(C)cc1NC(=O)NC1CCN(Cc2ccccc2)CC1 [CBK267095]	99.2%
c1ccc(CCN2CCC(Oc3cncc(OCCN4CCOCC4)n3)C2)cc1 (stereo not shown) [CBK084497]	87.6%
CC(C)NC1=NC(=O)C(CC(=O)Nc2ccccc2)S1 (stereo not shown) [CBK013880]	90.7%
N#Cc1ccc2nc([C@H]3CCN(C(=O)C4CCCCC4)C3)[nH]c2c1 [CBK289380]	90%
O=C(NCCc1ccccc1)c1c(NC(=O)C2COc3ccccc3O2)sc2c1CCCC2 (stereo not shown) [CBK265522]	89.8%
Cc1ccc(-c2noc([C@@H]3C[C@H](NC(=O)CCC(=O)O)CN3C)n2)cc1 [CBK288852]	93.8%
O=C(NCCOc1ccccc1)N1CCCC(CO)C1 (stereo not shown) [CBK156058]	99.6%
CSCCN1CCN(c2nccnc2OCC2COc3ccccc3O2)CC1 (stereo not shown) [CBK082806T]	85.2%

Structure (SMILES)	viability at 28.5 h, 10 µM
O=C1COc2ccccc2C/C=C/CC2(CCCN(C(=O)Cn3ccnc3)C2)CN1 (stereo not shown) [CBK292050]	107%
CCN(CC)C(=O)CN1CCCN(c2cc(Oc3ccc(OC)c(OC)c3)ncn2)CC1 [CBK083359T]	98.5%
O=C(Cn1c(NCCO)nc2ccccc21)c1ccc([N+](=O)[O-])cc1 [CBK262139B]	100%
c1ccc(OCCOc2cccnc2N2CCNCC2)cc1 [CBK200000C]	90.1%
CC(/C=C1\SC(=S)N(C(Cc2ccccc2)C(=O)O)C1=O)=C\c1ccccc1 (stereo not shown) [CBK263524]	91.7%
Nn1c(SCC(=O)Nc2cccc3ccccc23)nnc1-c1ccccc1Cl [CBK266080]	97.7%
COC(=O)c1c(NC(=O)CC2Nc3ccccc3NC2=O)sc2c1CCC2 (stereo not shown) [CBK269307A]	93.7%
COc1cc2[nH]c(=S)n(CCc3c[nH]cn3)c(=O)c2cc1OC [CBK268333]	102%
Nc1ncc(-c2cncnc2)nc1N1CCOCC1 [CBK063422]	93.7%
Cc1nc(NC(=O)CCN2C(=O)COc3ccccc32)sc1-c1n[nH]c(=S)n1C [CBK295362]	98.5%
Cc1c(C)n(CC(O)CNCc2ccco2)c2ccccc12 (stereo not shown) [CBK263970G]	97%
Cc1ccc(NC(=O)N(Cc2ccc3ccccc3c2)CC2CCNCC2)cc1[N+](=O)[O-] [CBK049771]	100%
Cc1cccc(Nc2ccc(C3CCCCN3Cc3ccc4nccnc4c3)cn2)n1 (stereo not shown) [CBK285536]	76.2%
CCCCC(=O)NC(c1ccc(Cl)cc1)c1cc([N+](=O)[O-])c2cccnc2c1O (stereo not shown) [CBK293938]	90.1%
O=C1NN=C(O)C1Cc1ccccc1 (stereo not shown) [CBK067758]	101%
O=C(NCCSCc1c(F)cccc1Cl)Nc1ccccc1 [CBK265340]	90.2%
Cc1onc(-c2ccccc2)c1CNC(=O)[C@@H]1CCCN1C [CBK144077]	89.8%
O=S(=O)(NCCc1c[nH]c2ccccc12)c1cccc2nsnc12 [CBK057456]	83.4%
CC(NC(=O)CCc1ccncc1)C1CC2CCC1C2 (stereo not shown) [CBK282090]	99.8%
O=C(O)CCCCCN1C(=O)/C(=C/c2ccc(O)c(O)c2)SC1=S [CBK262771]	91%
COc1ccc(CCCC(=O)N2CCN(c3ccccc3OC)CC2)cc1OC [CBK091495]	87.1%
O=C(Nc1nnc(-c2ccncc2)o1)c1ccc(Cl)cc1Cl [CBK287433]	82.3%

Structure (SMILES)	viability at 28.5 h, 10 µM
COc1cc(C(=O)N2CCC3(CC2)CC(=O)c2cc(C)ccc2O3)cc(OC)c1C [CBK167805]	99.6%
O=C1NCCC[C@@H]1NC(=O)[C@H]1CN(C(=O)c2ccccc2)CCN1C(=O)c1cccnc1 [CBK289634]	108%
Brc1cccc(/C=N/N2CCN(Cc3cccc4ccccc34)CC2)c1 [CBK263011]	98%
COc1cc(OC)cc(C(=O)N2CCC3(CC2)CC(=O)c2cc(F)cc(F)c2O3)c1 [CBK168089]	108%
CCc1nc(CC(=O)NC(C)C(O)c2ccc(F)cc2)cs1 (stereo not shown) [CBK304003]	86.7%
CCC1CN(C(=O)Cn2cnc3ccc(F)cc3c2=O)CCO1 (stereo not shown) [CBK305795]	92.4%
COc1ccccc1-c1ccc2c(c1)COC1(CCN(C)CC1)O2 [CBK061024]	82.2%
O=C(NCC1CCCO1)C1CCN(C(=O)c2cccc(F)c2)CC1 (stereo not shown) [CBK304633]	90.5%
O=C(Cn1cnc2c(F)cc(Br)cc2c1=O)N1CCOC2CCCCC21 (stereo not shown) [CBK305229]	89.2%
CC1CCCC(C)N1C(=O)Cn1cnc2c(Cl)cc(Cl)cc2c1=O (stereo not shown) [CBK306222]	85.7%
CCCOc1ccc(C(=O)C(CN(CC)CC)Oc2ccccc2)cc1 (stereo not shown) [CBK011944C]	94.7%
N#Cc1cc(SCCC(=O)O)c(N2CCOCC2)cc1C#N [CBK269212]	96.3%
O=C(Nc1ccnn1Cc1cc(Br)cs1)c1ccc2ncsc2c1 [CBK296713]	105%
COc1ccc(CC(=O)N2CCCCC2c2ccc(Cc3cccc(F)c3)nc2)cc1 (stereo not shown) [CBK286493]	90.3%
CCCCNC(=O)NC(=O)C1CCN(CCCOc2ccccc2)CC1 [CBK035198]	110%
N#C/C(=C\c1cn(-c2ccccc2)nc1-c1cccc(S(=O)(=O)N2CCOCC2)c1)c1nc2ccccc2c(=O)[nH]1 [CBK266357]	98.1%
O=C(CSCc1cccc2ccccc12)Nc1c[nH]c(=O)[nH]c1=O [CBK268500]	103%
Cc1ccc(OCCn2cncc2-c2cn(C)nc2C)cc1 [CBK281626]	93.7%
COc1ccc(NC(=O)c2cnc(-c3ccc(Cl)cc3)c(-c3ccc(C(C)=O)s3)c2)cn1 [CBK036643]	92.2%
O=C(NCCNC(=O)c1ccccn1)c1cccc(F)c1 [CBK269613]	78.3%
